Laboratory results from patent EP0142333A2, “Glycerol derivatives” (ONO PHARMACEUTICAL CO., LTD., priority 1983, dated 1985).
Structures can show the parent of a compound that is named as a salt.

Assays:
[1] = test system: PAF-induced platelet aggregation; assay: Inhibitory effect on PAF-induced platelet aggregation (platelet rich plasma, Born aggregometer); format: cell-based; details: Cavia porcellus; platelet rich plasma of male guinea-pig; PAF (10nM)-induced aggregation; absorbancy method
Procedure: (1) Inhibitory effect on PAF-induced platelet aggregation
Whole blood of male guinea-pig was collected with a 3.8%. aqueous solution of trisodium citrate in a proportion of 9:1 (v/v) and the mixture was centrifuged for 10 minutes at room temperature (120 x g) to obtain platelet rich plasma. Using obtained plasma, PAF (10nM)-induced aggregation was determined by the absorbancy method using an aggregometer of Born (cf. J. Physiol., 162, 67 (1962)) .
The evaluation is conducted using the concentration of compounds of the present invention required to produce a 50% inhibition of each effect, i.e. IC50.

[2] = test system: mice; assay: Acute toxicity by intravenous administration; format: in vivo; details: intravenously administered to tail vein in mice at the dose of 50 mg/kg

| SMILES | IC50 [1] [nM] | mortality (dead/used) [2] |
| --- | --- | --- |
| C=CCOC(COCCCCCCCCCCCCCCCC)COCCCC[N+](C)(C)C (racemic) [Example 7, (2RS)-1-0-hexadecyl-2-0-allyl-3-0-[4-(trimethylammonio)butyl] glycerol·iodide] | 3800 |  |
| CCCCCCCCCCCCCCCCOCC(COCCCCCCC[N+](C)(C)C)OCC (racemic) [5(a), (2RS)-1-0-hexadecyl-2-0-ethyl-3-0-[7-(trimethylammonio)heptyl]glycerol·methanesulfonic acid salt] |  | 0/5 |
| CCCCCCCCCCCCCCCCOCC(COCCCCCCC[N+](C)(C)C)OCCC (racemic) [5(b), (2RS)-1-0-hexadecyl-2-0-n-propyl-3-0-(7-(trimethylammonio)heptyl]glycerol·methanesulfonic acid salt] | 1800 | 0/5 |
| CCCCCCCCCCCCCCCCOCC(CCC)COCCCC[N+](C)(C)C (racemic) [Example 2, (2RS)-1-0-hexadecyl-2-dehydroxy-2-n-propyl-3-0-[4-(trimethylammonio)butyl]glycerol·iodide] | 5300 |  |
| CCCCCCCCCCCCCCCCOCC(COCCCC[N+](C)(C)C)C(C)C (racemic) [Example 2(b), (2RS)-l-0-hexadecyl-2-dehydroxy-2-iso-propyl-3-0-[4-(trimethylammonio)butyl]glycerol·iodide] |  | 2/5 |
| CCCCCCCCCCCCCCCCOCC(COCCCCCCC[N+](C)(C)C)OC (racemic) [Example 5, (2RS)-1-0-hexcadecyl-2-0-methyl-3-0-[7-(trimethylammonio)heptyl] glycerol·methanesulfonic acid salt] | 1300 | 0/5 |
